Data: the NIST ThermoML archive (doi:10.1016/j.jct.2017.03.021)
“And” between values parts separate entries of the source, which are not always exact repeats. Equal entries are not always repeated. ± gives the expanded uncertainty stated by the source.

What was measured:
[1] = Molar enthalpy of transition or fusion; conditions: Crystal; DSC
[2] = Crystal; for vapor or sublimation pressure: Calculated from knudsen effusion weight loss

O=Cc1ccc2c(c1)Cc1ccccc1-2 [9H-fluorene-2-carbaldehyde]
Conditions | Molar enthalpy of transition or fusion [kcal/mol]
[1] | 5.26 ± 0.143

[2]
Conditions | Normal melting temperature [°C] | vapor or sublimation pressure
335.16 K | – | 0.000121 ± 2e-05 kPa and 0.00012 ± 2e-05 kPa
337.16 K | – | 0.000147 ± 2.1e-05 kPa and 0.000149 ± 2.1e-05 kPa and 0.000144 ± 2.1e-05 kPa
339.09 K | – | 0.000186 ± 2.1e-05 kPa and 0.000185 ± 2.1e-05 kPa
341.11 K | – | 0.000231 ± 2.2e-05 kPa and 0.000233 ± 2.2e-05 kPa
341.16 K | – | 0.000227 ± 2.2e-05 kPa
343.08 K | – | 0.000288 ± 2.2e-05 kPa and 0.000289 ± 2.2e-05 kPa
343.14 K | – | 0.000288 ± 2.2e-05 kPa
345.09 K | – | 0.00036 ± 2.4e-05 kPa and 0.000361 ± 2.4e-05 kPa and 0.000364 ± 2.4e-05 kPa
347.16 K | – | 0.000444 ± 2.5e-05 kPa and 0.000463 ± 2.6e-05 kPa
349.11 K | – | 0.000553 ± 2.8e-05 kPa and 0.00054 ± 2.8e-05 kPa and 0.000557 ± 2.8e-05 kPa
351.09 K | – | 0.000685 ± 3.1e-05 kPa and 0.000687 ± 3.2e-05 kPa and 0.000681 ± 3.1e-05 kPa
353.1 K | – | 0.000861 ± 3.6e-05 kPa and 0.000847 ± 3.6e-05 kPa and 0.000859 ± 3.6e-05 kPa
355.09 K | – | 0.001048 ± 8.2e-05 kPa and 0.001057 ± 8.3e-05 kPa and 0.001075 ± 8.5e-05 kPa
DTA | 84.5 ± 0.4 | –
